Patent US20070117770A1, “Human ribosomal DNA (rDNA) and ribosomal RNA (rRNA) nucleic acids and uses thereof” (Cylene Pharmaceuticals, Inc., priority 2005, published 2007)
pIC50, pKd: −log10 of the molar value.

Assays:
[1] = test system: rRNA synthesis, HCT-116; test: PCR assay of rRNA synthesis from 45S rDNA (5' ETS probe); format: cell-based; details: Homo sapiens; rRNA synthesis, HCT-116; read-out: QPCRrDNA IC50_HCT-116
Experimental: Assays were conducted to determine the effects of compounds on rRNA synthesis from 45S rDNA. In particular, compound A-1 at various concentrations was incubated with cells and tested for an effect on rRNA synthesis after a two hour or four hour incubation with the compound. Synthesized rRNA was quantified by a polymerase chain reaction (PCR) assay. A primer/probe set was designed using Primer Express software and synthesized by Applied Biosystems. The 5′ ETS Probe utilized had the following sequence (@ its 3′ end): 6FAM-TTG ATC CTG CCA GTA GC-MGBNFQ (SEQ ID NO:227). The primer sequences were as follows:
(§1) Mix • 1 ug RNA • 2.5 ul 10× Taq Man buffer • 5.5 ul 25 mM MgCl2 • 5 ul of a mix of dNTP (500 uM each) • 1.2 ul random hexamer primer (2.5 uM stock) • 0.5 ul RNase inhibitor (0.4 units/ul) • 0.6 ul Reverse Transcriptase (1.2 units/ul) • bring to 25 ul total volume with water
(§2) Mix • 5 ul Reverse Transcriptase reaction product • 12.5 ul 2×PCR mix • 1 uM forward primer • 1 uM reverse primer • 0.5 uM Taq Man probe • 500 nM Rox • Adjust to 25 ul final volume with water
(§3) PCR cycles • 95 degrees C. 1 minute • 40 cycles of • 95 degrees C. 15 seconds • 60 degrees C. 1 minute.
(§4) Fluorescence of digested label was detected and quantified. […] The effect of other compounds on rRNA synthesis also were assessed in the assay, and provided in the table hereafter are IC50 values of selected compounds pertaining to rRNA synthesis and cMYC RNA synthesis.

[2] = test system: cMYC RNA synthesis, HCT-116; test: PCR control assay of C-myc transcription; format: cell-based; details: for pIC50: Homo sapiens, read-out: QPCRMYC IC50_HCT-116
Experimental: A control assay that detected effects of the compounds on C-myc transcription also was conducted using a primer/probe set purchased from ABI (TaqMan Gene Expression Assay with assay ID: Hs99999003_m1). The following assay protocol was utilized:
as §1, §2, §3, §4

[3] = biological target: T1, nucleolin (Homo sapiens, UniProt P19338); test: Filter-binding assay of 32P-labeled quadruplexes and Nucleolin; details: for pKd: 0.2 nM 32P-labeled quadruplex, read-out: Kd, apparent dissociation constant of nucleolin protein and the nucleic acid ligand
T1 construct: without the N-terminal acidic stretches domain
T1 sequence (P19338 284-710 limits assumed): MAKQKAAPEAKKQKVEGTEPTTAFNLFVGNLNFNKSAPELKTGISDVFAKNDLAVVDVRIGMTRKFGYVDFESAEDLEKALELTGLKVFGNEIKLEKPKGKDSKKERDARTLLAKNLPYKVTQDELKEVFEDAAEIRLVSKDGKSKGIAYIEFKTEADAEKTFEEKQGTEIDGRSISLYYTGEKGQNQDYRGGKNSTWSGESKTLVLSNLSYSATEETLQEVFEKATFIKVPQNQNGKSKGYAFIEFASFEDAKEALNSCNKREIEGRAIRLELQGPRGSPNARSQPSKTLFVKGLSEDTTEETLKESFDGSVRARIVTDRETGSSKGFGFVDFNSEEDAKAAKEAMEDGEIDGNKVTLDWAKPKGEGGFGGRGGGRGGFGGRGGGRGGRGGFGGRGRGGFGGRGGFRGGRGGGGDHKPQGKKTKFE
Experimental: The assay also was conducted in a filter-binding format. […] The protein-quadruplex mixtures were incubated for 30 min at ambient temperature and filtered through mixed cellulose ester membrane filters (Millipore) with gentle suction. The filters were washed twice with […] of binding buffer, dried and OptiPhase ‘SuperMix’ scintillation cocktail (Perkin Elmer) was added to the wells. Radioactivity was assayed with MicroBeta scintillation counter (Perkin Elmer). Binding curves were constructed and apparent Kd's and Bmax's for the complexes were calculated using the GraphPad Prizm software program (GraphPad Software). In the following table, the nucleic acid ligand is designated in the first column using the nomenclature described herein; the second column provides the nucleotide sequence of the nucleic acid ligand; the third column is the conformation of the ligand as determined by circular dichroism (M is mixed, P is parallel, A is antiparallel, C is complex, SS is single-stranded and ND is not determined); the fourth column is the dissociation constant determined by the filter binding assay of nucleolin protein and the nucleic acid ligand; the fifth column is a Bmax constant determined by the filter binding assay, which is the percent of active nucleic acid ligand in each assay; and the sixth column presents the concentration of Compound A-1 required to dissociate half of the complexed nucleic acid ligand and nucleolin protein, as determined by the EMSA assay described above.

O=C(NCCN1CCCC1)c1cn2c3c(c(NCCN4CCCC4)c(F)cc3c1=O)Oc1ccccc1-2 [Compound 1]
pIC50 [1]: 7.30
pIC50 [2]: 8.00

CC(C)N1CCN(c2c(F)cc3c(=O)c(C(=O)NCCN4CCCC4)cn4c3c2Oc2cc(Cl)ccc2-4)CC1 [Compound 2]
pIC50 [1]: 7.30
pIC50 [2]: 7.00

CC(C)N1CCN(c2nc3c(cc2F)c(=O)c(C(=O)NCCC2CCCN2C)c2n(C)c4ccc(C#N)cc4n32)CC1 (centres unmarked) [Compound 3]
pIC50 [1]: 7.30
QPCRMYC IC50_HCT-116 [2]: INACTIVE

AGGGACCGGTGGGGCCGGGGCGGGG (DNA, backbone and methylation of C not given here; listed as Homo sapiens) [Compound 3468T]
Bmax, percent of active nucleic acid ligand [3]: 21%
pKd [3]: 8.62

AGGGACGCCTGGGGAAGGGAGGGGG (DNA, backbone and methylation of C not given here; listed as Homo sapiens) [Compound 1310T]
Bmax, percent of active nucleic acid ligand [3]: 50%
pKd [3]: 8.36

AGGGACGGGGACCGGCGGGCCACGGGG (DNA, backbone and methylation of C not given here; listed as Homo sapiens) [Compound 13236T]
pKd [3]: < 7.52

AGGGAGGACGCGGGGCCGGGGGGCGGAGACGGG (DNA, backbone and methylation of C not given here; listed as Homo sapiens) [Compound 8716T]
Bmax, percent of active nucleic acid ligand [3]: 49%
pKd [3]: 8.51

AGGGAGGGAGACGGGGGGG (DNA, backbone and methylation of C not given here; listed as Homo sapiens) [Compound 5701NT]
Bmax, percent of active nucleic acid ligand [3]: 84%
pKd [3]: 8.49

AGGGCGCGGGGTGGGGAGGG (DNA, backbone and methylation of C not given here; listed as Homo sapiens) [Compound 10951T]
Bmax, percent of active nucleic acid ligand [3]: 52%
pKd [3]: 9.70

AGGGCGGACGGGAGGGAGCGAGCGGGCGCGGGGG (DNA, backbone and methylation of C not given here; listed as Homo sapiens) [Compound 3500T]
Bmax, percent of active nucleic acid ligand [3]: 20%
pKd [3]: 8.96

AGGGCGGGCGGCGGGGCGGG (DNA, backbone and methylation of C not given here; listed as Homo sapiens) [Compound 7499T]
Bmax, percent of active nucleic acid ligand [3]: 16%
pKd [3]: 8.96

AGGGGACACCGGGGGGGCGCCGGGGG (DNA, backbone and methylation of C not given here; listed as Homo sapiens) [Compound 11888T]
Bmax, percent of active nucleic acid ligand [3]: 47%
pKd [3]: 9.70

AGGGGAGGGGGGAGGACGGGGAGCGGGGG (DNA, backbone and methylation of C not given here; listed as Homo sapiens) [Compound 10985T]
Bmax, percent of active nucleic acid ligand [3]: 35%
pKd [3]: 9.70

AGGGGCGGCGGGGAGGAGGAGGGGCGCGGGG (DNA, backbone and methylation of C not given here; listed as Homo sapiens) [Compound 7370T]
Bmax, percent of active nucleic acid ligand [3]: 16%
pKd [3]: 8.96

AGGGGCGGCGGGGGAAGGGAGGGCGGGTGGAGGGGTCGGGAGGAACGGGGGGCGGG (DNA, backbone and methylation of C not given here; listed as Homo sapiens) [Compound 8440T]
Bmax, percent of active nucleic acid ligand [3]: 35%
pKd [3]: 9.52

AGGGGCGGGGGCGCGGGGAGGAGGGGTGGG (DNA, backbone and methylation of C not given here; listed as Homo sapiens) [Compound 9024T]
Bmax, percent of active nucleic acid ligand [3]: 43%
pKd [3]: 9.52

AGGGGCTCCGGGGGCGGGGAGCGGGGCGTGGGCGGGAGGAGGGG (DNA, backbone and methylation of C not given here; listed as Homo sapiens) [Compound 10137T]
Bmax, percent of active nucleic acid ligand [3]: 65%
pKd [3]: 9.40

AGGGGGGAACGGGGGGCGGACGGGGCCGGGGGGGTAGGGCGGGGGG (DNA, backbone and methylation of C not given here; listed as Homo sapiens) [Compound 11345T]
Bmax, percent of active nucleic acid ligand [3]: 32%
pKd [3]: 9.52

AGGGGGTGGGCGCCGGGAGGGGGG (DNA, backbone and methylation of C not given here; listed as Homo sapiens) [Compound 8904T]
Bmax, percent of active nucleic acid ligand [3]: 31%
pKd [3]: 9.40

AGGGTGGGGCGGGGGAGGGCCGCGAGGGGGGTGCCCCGGGCGTGGGGGGGG (DNA, backbone and methylation of C not given here; listed as Homo sapiens) [Compound 10885T]
Bmax, percent of active nucleic acid ligand [3]: 82%
pKd [3]: 9.70

AGGGTTAGGGTTAGGGTTAGGG [hTeI, reference compound]
pKd [3]: < 7.52

GGAGGAGGAGGA (DNA, backbone not given here; listed as Homo sapiens) [GGA4, reference compound]
pKd [3]: < 7.52

GGGCCCGCGGGGGGAGGGGGAAGGGGCGGG (DNA, backbone and methylation of C not given here; listed as Homo sapiens) [Compound 6914T]
Bmax, percent of active nucleic acid ligand [3]: 50%
pKd [3]: 9.10

GGGCCGGGACGGGGTCCGGGG (listed as DNA, chemistry not given here; listed as Homo sapiens) [Compound 13173NT]
pKd [3]: < 7.52

GGGCGGGGGGGGCGGGGGG (DNA, backbone and methylation of C not given here; listed as Homo sapiens) [Compound 6534NT]
Bmax, percent of active nucleic acid ligand [3]: 51%
pKd [3]: 8.96

GGGCTGGGTCGGTCGGGCTGGGG (listed as DNA, chemistry not given here; listed as Homo sapiens) [Compound 10816NT]
pKd [3]: < 7.52

GGGGGCGGGAACCCCCGGGCGCCTGTGGG (DNA, backbone and methylation of C not given here; listed as Homo sapiens) [Compound 6374NT]
Bmax, percent of active nucleic acid ligand [3]: 47%
pKd [3]: 8.26

GGGGTGGGGGGGAGGG (listed as DNA, chemistry not given here; listed as Homo sapiens) [Compound 13079NT]
Bmax, percent of active nucleic acid ligand [3]: 37%
pKd [3]: 8.59

GGGTCCGGAAGGGGAAGGGTGCCGGCGGGGAGAGAGGGTCGGGGG (DNA, backbone and methylation of C not given here; listed as Homo sapiens) [Compound 7253NT]
Bmax, percent of active nucleic acid ligand [3]: 60%
pKd [3]: 9.40

GGGTCGGGGGGTGGGGCCCGGGCCGGGG (listed as DNA, chemistry not given here; listed as Homo sapiens) [Compound 2957NT]
Bmax, percent of active nucleic acid ligand [3]: 66%
pKd [3]: 8.57

GGGTGGACGGGGGGGCCTGGTGGGG (listed as DNA, chemistry not given here; listed as Homo sapiens) [Compound 1196NT]
Bmax, percent of active nucleic acid ligand [3]: 41%
pKd [3]: 8.38

GGGTGGCGGGGGGGAGAGGGGGG (listed as DNA, chemistry not given here; listed as Homo sapiens) [Compound 6960NT]
Bmax, percent of active nucleic acid ligand [3]: 68%
pKd [3]: 9.30

GTCGTAACGTCGATCAGTTTACGACAT (DNA, backbone and methylation of C not given here; listed as Homo sapiens) [RND27, reference compound]
pKd [3]: < 7.52

TGGGGAGGGTGGGGAGGGTGGGGAATT (DNA, backbone not given here; listed as Homo sapiens) [Myc27, reference compound]
Bmax, percent of active nucleic acid ligand [3]: 33%
pKd [3]: 8.36
